Data: ChEMBL document CHEMBL5050833, “Novel cyclic trex1 inhibitors” (2020)

Columns and labels:
[1] = species on record: Mus musculus; assay: Binding affinity to recombinant mouse TREX1 incubated in assay buffer and measured by thermal shift binding assay; further: test concentration or dose not given here
[2] = species on record: Mus musculus; assay: Binding affinity to recombinant mouse TREX1 incubated in PBS and measured by thermal shift binding assay; further: test concentration or dose not given here
[3] = species on record: Homo sapiens; assay: Binding affinity to recombinant human TREX1 incubated in PBS and measured by thermal shift binding assay; further: test concentration or dose not given here
[4] = Inhibition of human TREX1 exonuclease activity using labeled DNA oligonucleotide as substrate incubated for 30 mins and measured after 45 mins by fluorescence assay
[5] = species on record: Homo sapiens; assay: Binding affinity to recombinant human TREX1 incubated in assay buffer and measured by thermal shift binding assay; further: test concentration or dose not given here
[6] = Inhibition of mouse TREX1 exonuclease activity using labeled DNA oligonucleotide as substrate incubated for 30 mins and measured after 45 mins by fluorescence assay

Row | Compound | ΔTm [1] [°C] | ΔTm [2] [°C] | ΔTm [3] [°C] | IC50 [4] | ΔTm [5] [°C] | IC50 [6]
1 | N[C@@H]1C[C@H]2C(=O)N([C@H](CCC(=O)O)C(=O)NCc3ccc(C(F)(F)F)cc3)CCC(CCc3ccccc3)N2C1 (stereo in doubt; form 2) | 4 | 4 | > 8 |  | > 8 | 
2 | N#CCC[C@H](C(=O)NCc1ccc(Cl)c(Cl)c1)N1CCC(CCc2ccccc2)N2C[C@H](N)C[C@H]2C1=O (stereo partly drawn) |  |  |  | < 1000 nM |  | < 1000 nM
3 | CC(C)C[C@H](C(=O)NCc1ccc(Cl)c(Cl)c1)N1CCC(CSc2ccccc2)N2C[C@H](N)C[C@H]2C1=O (stereo partly drawn) |  |  |  | < 1000 nM |  | < 1000 nM
4 | CC(C)C[C@H](C(=O)NCc1ccc(C#N)cc1)N1CCC(CCc2ccccc2)N2C[C@H](N)C[C@H]2C1=O (stereo partly drawn) |  |  |  | in the range around 1000 nM |  | in the range around 10000 nM
5 | N[C@@H]1C[C@H]2C(=O)N([C@H](CCC(=O)O)C(=O)NCc3ccc(Cl)c(Cl)c3)CCC(COc3ccccc3)N2C1 (stereo partly drawn) |  |  |  | < 1000 nM |  | < 1000 nM
6 | N[C@@H]1C[C@H]2C(=O)N([C@H](CCC(=O)O)C(=O)NCc3ccc(Cl)c(Cl)c3)CCC(CCc3ccccc3)N2C1 (stereo in doubt; form 2) [listing 2 of 2 here] |  |  |  | < 1000 nM |  | < 1000 nM
7 | N[C@@H]1C[C@H]2C(=O)N([C@H](Cc3ccc(O)cc3)C(=O)NCc3ccc(Cl)c(Cl)c3)CCC(CCc3ccccc3)N2C1 (stereo partly drawn) | 4 | 4 | > 8 | < 1000 nM | > 8 | < 1000 nM
8 | CC(C)C[C@H](C(=O)NCc1cccc(Cl)c1)N1CCC(CCc2ccccc2)N2C[C@H](N)C[C@H]2C1=O (stereo partly drawn) |  |  |  | < 1000 nM |  | in the range around 1000 nM
9 | CC(C)C[C@H](C(=O)NCc1ccc(Cl)c(Cl)c1)N1CC(CCc2ccccc2)N2C[C@H](N)C[C@H]2C1=O (stereo partly drawn) |  |  |  | in the range around 10000 nM |  | in the range around 10000 nM
10 | CC(C)C[C@H](C(=O)NCc1cnccn1)N1CCC(CCc2ccccc2)N2C[C@H](N)C[C@H]2C1=O (stereo partly drawn) |  |  |  | in the range around 1000 nM |  | in the range around 10000 nM
11 | CC(C)C[C@H](C(=O)NCCc1ccc(Cl)c(Cl)c1)N1CCC(CCc2ccccc2)N2C[C@H](N)C[C@H]2C1=O (stereo partly drawn) |  |  |  | < 1000 nM |  | in the range around 1000 nM
12 | CC(C)C[C@H](CNC(=O)c1ccc(Cl)cc1)N1CCC(CCc2ccccc2)N2C[C@H](N)C[C@H]2C1=O (stereo partly drawn) |  |  |  | in the range around 1000 nM |  | in the range around 1000 nM
13 | CC(C)C[C@H](C(=O)NCc1ccc(Cl)c(Cl)c1)N1CCC(CCc2ccccc2)N2C[C@H](N(C)C)C[C@H]2C1=O (stereo partly drawn) |  |  |  | in the range around 10000 nM |  | > 100000 nM
14 | CC(C)C[C@H](C(=O)NCc1ccc(Cl)cc1)N1CCC(C[S@+]([O-])c2ccccc2)N2C[C@H](N)C[C@H]2C1=O (stereo partly drawn) |  |  |  | < 1000 nM |  | in the range around 1000 nM
15 | NC(=O)CC[C@H](C(=O)NCc1ccc(Cl)c(Cl)c1)N1CCC(CCc2ccccc2)N2C[C@H](N)C[C@H]2C1=O (stereo partly drawn) |  |  |  | < 1000 nM |  | < 1000 nM
16 | CC(C)C[C@H](C(=O)NCc1ccc(Cl)c(Cl)c1)N1CCC(Cc2ccccc2)N2C[C@H](N)C[C@H]2C1=O (stereo partly drawn) |  |  |  | in the range around 1000 nM |  | in the range around 1000 nM
17 | CC(C)C[C@H](C(=O)NCCc1ccccc1)N1CCC(CCc2ccccc2)N2C[C@H](N)C[C@H]2C1=O (stereo partly drawn) |  |  |  | in the range around 1000 nM |  | in the range around 10000 nM
18 | CC(C)C[C@H](C(=O)NCc1ccc(Cl)cc1)N1CCC(C[S@@+]([O-])c2ccccc2)N2C[C@H](N)C[C@H]2C1=O (stereo partly drawn) |  |  |  | < 1000 nM |  | in the range around 1000 nM

Results, then the compound that gave them:

Row | ΔTm [1] [°C] | ΔTm [2] [°C] | ΔTm [3] [°C] | IC50 [4] | ΔTm [5] [°C] | IC50 [6] | Compound
19 | 4 | 4 | > 8 | < 1000 nM | > 8 | < 1000 nM | N[C@@H]1C[C@H]2C(=O)N([C@H](CO)C(=O)NCc3ccc(Cl)c(Cl)c3)CCC(CCc3ccccc3)N2C1 (stereo partly drawn)
20 | 4 | 4 | > 8 | < 1000 nM | > 8 | < 1000 nM | CC(C)C[C@H](C(=O)NCc1ccc(Cl)c(Cl)c1)N1CCC(CCc2ccccc2)N2C[C@H](N)C[C@H]2C1=O (stereo partly drawn)
21 |  |  |  | < 1000 nM |  | in the range around 1000 nM | CC(C)C[C@H](C(=O)NCc1cc(Cl)cc(Cl)c1)N1CCC(CCc2ccccc2)N2C[C@H](N)C[C@H]2C1=O (stereo partly drawn)
22 |  |  |  | in the range around 1000 nM |  | in the range around 10000 nM | CC(C)C[C@H](C(=O)NCc1ccccc1Cl)N1CCC(CCc2ccccc2)N2C[C@H](N)C[C@H]2C1=O (stereo partly drawn)
23 |  |  |  | in the range around 1000 nM |  | in the range around 10000 nM | CC(C)C[C@H](C(=O)NCc1ccc(Cl)c(Cl)c1)N1CCC(CCc2ccccc2)N(CCN)CC1=O (stereo partly drawn)
24 |  |  |  | < 1000 nM |  | < 1000 nM | N[C@@H]1C[C@H]2C(=O)N([C@H](CCc3nsc(=O)[nH]3)C(=O)NCc3ccc(Cl)c(Cl)c3)CCC(CCc3ccccc3)N2C1 (stereo partly drawn)
25 |  | > 8 |  |  | > 8 |  | N[C@@H]1C[C@H]2C(=O)N([C@H](CCC(=O)O)C(=O)NCc3ccc(Cl)c(Cl)c3)CCC(CCc3ccccc3)N2C1 (stereo in doubt; form 2) [listing 1 of 2 here]
26 |  |  |  | < 1000 nM |  | < 1000 nM | C[C@H](C(=O)NCc1ccc(C(F)(F)F)cc1)N1CCC(CCc2ccccc2)N2C[C@H](N)C[C@H]2C1=O (stereo partly drawn)
27 |  |  |  | in the range around 10000 nM |  | in the range around 10000 nM | N[C@@H]1C[C@H]2C(=O)N([C@H](CCC(=O)O)C(=O)NCc3ccc(Cl)c(Cl)c3)CCC(CCc3ccccc3)N2C1 (stereo in doubt; form 1)
28 |  |  |  | < 1000 nM |  | in the range around 1000 nM | CC(C)C[C@H](C(=O)NCc1ccc(Cl)cc1)N1CCC(CCc2ccccc2)N2C[C@H](N)C[C@H]2C1=O (stereo partly drawn)
29 |  |  |  | in the range around 1000 nM |  | in the range around 10000 nM | CC(C)C[C@H](C(=O)NCc1cncs1)N1CCC(CCc2ccccc2)N2C[C@H](N)C[C@H]2C1=O (stereo partly drawn)
30 |  |  |  | < 1000 nM |  | < 1000 nM | N[C@@H]1C[C@H]2C(=O)N([C@H](CC(=O)O)C(=O)NCc3ccc(Cl)c(Cl)c3)CCC(CCc3ccccc3)N2C1 (stereo partly drawn)
31 |  |  |  | < 1000 nM |  | < 1000 nM | N[C@@H]1C[C@H]2C(=O)N([C@H](CCc3nnn[nH]3)C(=O)NCc3ccc(Cl)c(Cl)c3)CCC(CCc3ccccc3)N2C1 (stereo partly drawn)
32 |  |  |  | < 1000 nM |  | in the range around 1000 nM | CC(C)C[C@H](C(=O)NCc1ccc(Cl)c(Cl)c1)N1CCC(CCc2ccc(Cl)cc2)N2C[C@H](N)C[C@H]2C1=O (stereo partly drawn)
